Counter-ions that a name gives are not always drawn. Like-named read-outs stand apart in the source and are kept apart here.

Experiment [1] has as its system acute myelogenous leukemia cells (MV-4-11 cells). The experiment can be described thus: Cytotoxicity to acute myelogenous leukemia cells (MV-4-11 cells), CCK-8. As to conditions: Homo sapiens, MV4-11, 72 h.
Experiment [2] has as its target BRD4 (BD1+BD2) bromodomain (Homo sapiens (Human), UniProt O60885). The experiment can be described thus: BRD4 binding inhibition (AlphaScreen, GST-BRD4 vs tetraacetylated histone H4 peptide). Summed up:
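AlphaScreen read after 30 min dark incubation at room temperature with glutathione acceptor/streptavidin donor beads (10 μg/ml each). The beads were added to compound plus 100 nM biotin-H4 (K5,8,12,16-acetyl) peptide and 100 nM GST-BRD4 BD1+BD2 in pH 7.4 HEPES/Tween/BSA/DTT buffer.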
For orientation: Alpha assays give light when donor and acceptor beads are brought close together.

Setting [3] is: read-out: IC50, cytotoxicity against acute myelogenous leukemia cells.
[4] abbreviates: read-out: MV-4-11 Cytotoxicity IC50.
The mark [5] stands for this setting: GST-BRD4 (BD1+BD2) / biotinylated acetyl-histone H4 (Lys5,8,12,16) peptide, read-out: IC50, BRD4 binding inhibition.
Where [6] appears, read: GST-BRD4 (BD1+BD2) vs biotinylated acetyl-histone H4 peptide, AlphaScreen, read-out: BRD4 IC50.

Broadly, the IC50 is the midpoint of a concentration-inhibition curve. For the compound `Cc1nnc2c(NCCCCNC(=O)OC(C)C)nc3cc(-n4ccnc4)ccc3n12` [Example 494, [4-(7-imidazole-1-yl-1-methyl-[1,2,4]triazolo[4,3-a]quinoxaline-4-ylamino)-butyl]-carbamic acid isopropylester], the IC50 was at most 0.2 µM in experiment [1] (setting [3]), 0.11 µM in experiment [1] (setting [4]), at most 0.05 µM in experiment [2] (setting [5]) and 0.014 µM in experiment [2] (setting [6]).
The like results for `CCC(C)CC(=O)NCCCCNc1nc2cc(-n3ccnc3)ccc2n2c(C)nnc12` (stereo not drawn) [Example 495, 3-methyl-pentanoic acid-[4-(7-imidazole-1-yl-1-methyl-[1,2,4]triazolo[4,3-a]quinoxaline-4-ylamino)-butyl]-amide] were, in that order, at most 0.2 µM, 0.029 µM, at most 0.05 µM and 0.012 µM.
With `Cc1nnc2c(NCCCCNC(=O)Cc3cccs3)nc3cc(-n4ccnc4)ccc3n12` [Example 496, N-[4-(7-imidazole-1-yl-1-methyl-[1,2,4]triazolo[4,3-a]quinoxaline-4-ylamino)-butyl]-2-thiophene-2-yl-acetamide], the IC50 in experiment [1] (setting [3]) was at most 0.2 µM; in experiment [1] (setting [4]), 0.02 µM; in experiment [2] (setting [5]), at most 0.01 µM; in experiment [2] (setting [6]), 0.01 µM.
As to `Cc1nnc2c(NCCCCNC(=O)OC(C)(C)C)nc3cc(N4CCOCC4)ccc3n12` [Example 497, [4-(1-methyl-7-morpholine-4-yl-[1,2,4]triazolo[4,3-a]quinoxaline-4-ylamino)-butyl]-carbamic acid-tert-butylester], the IC50 was 0.73 µM in experiment [1] (setting [4]), at most 0.05 µM in experiment [2] (setting [5]) and 0.038 µM in experiment [2] (setting [6]).
`Cc1nnc2c(NCCCCNC(=O)CC(C)C)nc3cc(N4CCOCC4)ccc3n12` [Example 499, 3-methyl-N-[4-(1-methyl-7-morpholine-4-yl-[1,2,4]triazolo[4,3-a]quinoxaline-4-ylamino)-butyl]-butyramide]: the IC50 is at most 0.2 µM in experiment [1] (setting [3]), 0.14 µM in experiment [1] (setting [4]), at most 0.01 µM in experiment [2] (setting [5]) and 0.01 µM in experiment [2] (setting [6]).
On to `Cc1nnc2c(NCCCCNC(=O)[C@@H](F)C(C)C)nc3cc(N4CCOCC4)ccc3n12` [Example 500, 2-(S)-fluoro-3-methyl-N-[4-(1-methyl-7-morpholine-4-yl-[1,2,4]triazolo[4,3-a]quinoxaline-4-ylamino)-butyl]-butyramide], for which the IC50 is at most 0.2 µM in experiment [1] (setting [3]), 0.098 µM in experiment [1] (setting [4]), at most 0.05 µM in experiment [2] (setting [5]) and 0.04 µM in experiment [2] (setting [6]).
Taken in the same sequence, the figures for `CCC(C)CC(=O)NCCCCNc1nc2cc(N3CCOCC3)ccc2n2c(C)nnc12` (stereo not drawn) [Example 501, 3-methyl-pentanoic acid-[4-(1-methyl-7-morpholine-4-yl-[1,2,4]triazolo[4,3-a]quinoxaline-4-ylamino)-butyl]-amide] were at most 0.2 µM, 0.06 µM, at most 0.01 µM and 0.009 µM.
Take `Cc1nnc2c(NCCCCNC(=O)[C@@H](NC(=O)OC(C)(C)C)C(C)C)nc3cc(N4CCOCC4)ccc3n12` [Example 502, (S)-{2-methyl-1-[4-(1-methyl-7-morpholine-4-yl-[1,2,4]triazolo[4,3-a]quinoxaline-4-ylamino)-butylcarbamoyl]-propyl}-carbamic acid-tert-butylester]: the IC50 in experiment [1] (setting [4]) is 0.331 µM; in experiment [2] (setting [5]), at most 0.05 µM; in experiment [2] (setting [6]), 0.03 µM.
With `Cc1nnc2c(NCCCCNC(=O)[C@@H](N)C(C)C)nc3cc(N4CCOCC4)ccc3n12` [Example 503, 2-(S)-amino-3-methyl-N-[4-(1-methyl-7-morpholine-4-yl-[1,2,4]triazolo[4,3-a]quinoxaline-4-ylamino)-butyl]-butyramide hydrochloride], the IC50 in experiment [1] (setting [4]) is 0.575 µM; in experiment [2] (setting [6]), 0.063 µM.
Consider `Cc1nnc2c(NCCCCNC(=O)[C@@H](NS(C)(=O)=O)C(C)C)nc3cc(N4CCOCC4)ccc3n12` [Example 505, 2-(S)-methanesulfonylamino-3-methyl-N-[4-(1-methyl-7-morphonyl-4-yl-[1,2,4]triazolo[4,3-a]quinoxaline-4-ylamino)-butyl]-butyramide], for which the results for the IC50 in experiment [1] (setting [4]), in experiment [2] (setting [5]) and in experiment [2] (setting [6]) were 0.533 µM, at most 0.05 µM and 0.026 µM, respectively.
Taken in the same sequence, the figures for `Cc1nnc2c(NCCCCNC(=O)OC(C)C)nc3cc(N4CCOCC4)ccc3n12` [Example 506, [4-(1-methyl-7-morpholine-4-yl-[1,2,4]triazolo[4,3-a]quinoxaline-4-ylamino)-butyl]-carbamic acid isopropylester] were 0.34 µM, at most 0.05 µM and 0.015 µM.
Take `Cc1nnc2c(NCCCCNC(=O)Cc3cccs3)nc3cc(N4CCOCC4)ccc3n12` [Example 507, N-[4-(1-methyl-7-morpholine-4-yl-[1,2,4]triazolo[4,3-a]quinoxaline-4-ylamino)-butyl]-2-thiophene-2-yl-acetamide]: the IC50 was at most 0.2 µM in experiment [1] (setting [3]), 0.021 µM in experiment [1] (setting [4]), at most 0.05 µM in experiment [2] (setting [5]) and 0.011 µM in experiment [2] (setting [6]).
With `Cc1nnc2c(NCCCCNC(=O)OC(C)(C)C)nc3cc(N4C[C@@H](C)O[C@@H](C)C4)ccc3n12` [Example 508, {4-[7-(2,6-dimethyl-morphonyl-4-yl)-1-methyl-[1,2,4]triazolo[4,3-a]quinoxaline-4-ylamino]-butyl}-carbamic acid-tert-butylester], the IC50 was 0.575 µM in experiment [1] (setting [4]), at most 0.05 µM in experiment [2] (setting [5]) and 0.029 µM in experiment [2] (setting [6]).
Take `Cc1nnc2c(NCCCCNC(=O)CC(C)C)nc3cc(N4C[C@@H](C)O[C@@H](C)C4)ccc3n12` [Example 510, N-{4-[7-(2,6-dimethyl-morpholine-4-yl)-1-methyl-[1,2,4]triazolo[4,3-a]quinoxaline-4-ylamino]-butyl}-3-methyl-butyramide]: the IC50 in experiment [1] (setting [4]) stood at 0.335 µM; in experiment [2] (setting [6]), 0.057 µM.
For the compound `Cc1nnc2c(NCCCCNC(=O)[C@H](O)C(C)C)nc3cc(N4C[C@@H](C)O[C@@H](C)C4)ccc3n12` [Example 512, N-{4-[7-(2,6-dimethyl-morpholine-4-yl)-1-methyl-[1,2,4]triazolo[4,3-a]quinoxaline-4-ylamino]-butyl}-2-(R)-hydroxy-3-methyl-butyramide], the half-inhibitory concentration (IC50) in experiment [1] (setting [4]) was 0.631 µM; in experiment [2] (setting [6]), 0.065 µM.
Consider `Cc1nnc2c(NCCCCNC(=O)[C@@H](NC(=O)OC(C)(C)C)C(C)C)nc3cc(N4C[C@@H](C)O[C@@H](C)C4)ccc3n12` [Example 513, (S)-{2-methyl-1-[4-(1-methyl-7-(2,6-dimethyl-morpholine-4-yl)-[1,2,4]triazolo[4,3-a]quinoxaline-4-ylamino)-butylcarbamoyl]-propyl}-carbamic acid-tert-butylester], for which the IC50 in experiment [1] (setting [4]) was 0.279 µM; in experiment [2] (setting [5]), at most 0.05 µM; in experiment [2] (setting [6]), 0.019 µM.
As for `Cc1nnc2c(NCCCCNC(=O)[C@@H](N)C(C)C)nc3cc(N4CC(C)OC(C)C4)ccc3n12` (stereo partly drawn) [Example 514, 2-(S)-amino-N-{4-[7-(2,6-dimethyl-morpholine-4-yl)-1-methyl-[1,2,4]triazolo[4,3-a]quinoxaline-4-ylamino]-butyl}-3-methyl-butyramide hydrochloride], the IC50 in experiment [1] (setting [4]) amounted to 0.432 µM; in experiment [2] (setting [6]), 0.06 µM.
Consider `Cc1nnc2c(NCCCCNC(=O)[C@@H](NC(=O)OCC(C)C)C(C)C)nc3cc(N4C[C@@H](C)O[C@@H](C)C4)ccc3n12` [Example 515, (S)-(1-{4-[7-(2,6-dimethyl-morpholine-4-yl)-1-methyl-[1,2,4]triazolo[4,3-a]quinoxaline-4-ylamino]-butylcarbamoyl}-2-methyl-propyl)-carbamic acid isobutylester], for which the figures for the concentration for half-maximal inhibition (IC50) in experiment [1] (setting [3]), in experiment [1] (setting [4]) and in experiment [2] (setting [5]) were at most 0.2 µM, 0.09 µM and at most 0.05 µM, respectively.
As to `CCCOC(=O)N[C@H](C(=O)NCCCCNc1nc2cc(N3C[C@@H](C)O[C@@H](C)C3)ccc2n2c(C)nnc12)C(C)C` [Example 516, (S)-(1-{4-[7-(2,6-dimethyl-morpholine-4-yl)-1-methyl-[1,2,4]triazolo[4,3-a]quinoxaline-4-ylamino]-butylcarbamoyl}-2-methyl-propyl)-carbamic acid propylester], the IC50 is 0.518 µM in experiment [1] (setting [4]) and at most 0.05 µM in experiment [2] (setting [5]).
Turning to `Cc1nnc2c(NCCCCNC(=O)[C@@H](NC(=O)[C@@H](F)C(C)C)C(C)C)nc3cc(N4C[C@@H](C)O[C@@H](C)C4)ccc3n12` [Example 517], the IC50 in experiment [1] (setting [4]) was 0.236 µM; in experiment [2] (setting [5]), at most 0.05 µM; in experiment [2] (setting [6]), 0.038 µM.
Regarding `Cc1nnc2c(NCCCCNC(=O)[C@@H](NC(=O)C(C)(C)C)C(C)C)nc3cc(N4C[C@@H](C)O[C@@H](C)C4)ccc3n12` [Example 519], the IC50 in experiment [1] (setting [4]) was 0.4 µM; in experiment [2] (setting [5]), at most 0.05 µM; in experiment [2] (setting [6]), 0.049 µM.
On to `Cc1nnc2c(NCCCCNC(=O)[C@@H](NC(=O)OC(C)C)C(C)C)nc3cc(N4C[C@@H](C)O[C@@H](C)C4)ccc3n12` [Example 520, (S)-(1-{4-[7-(2,6-dimethyl-morpholine-4-yl)-1-methyl-[1,2,4]triazolo[4,3-a]quinoxaline-4-ylamino]-butylcarbamoyl}-2-methyl-propyl)-carbamic acid isopropylester], for which the IC50 is at most 0.2 µM in experiment [1] (setting [3]), 0.174 µM in experiment [1] (setting [4]), at most 0.05 µM in experiment [2] (setting [5]) and 0.024 µM in experiment [2] (setting [6]).
For the compound `Cc1nnc2c(NCCCCNC(=O)CC(C)C)nc3cc(N4CCc5sccc5C4)ccc3n12` [Example 528, N-{4-[7-(6,7-dihydro-4H-thiano[3,2-c]pyridine-5-yl)-1-methyl-[1,2,4]triazolo[4,3-a]quinoxaline-4-ylamino]-butyl}-3-methyl-butyramide], the IC50 is 0.203 µM in experiment [1] (setting [4]), at most 0.05 µM in experiment [2] (setting [5]) and 0.015 µM in experiment [2] (setting [6]).

The values are drawn from patent US11028090B2 (Dong Wha Pharm. Co., Ltd., priority 2017, dated 2021).
